Active and inactive are the calls of the source. The rule behind the calls is not given here.
Assays:
[1] = molecular target: Signal transducer and activator of transcription 3 (Homo sapiens, UniProt P40763); experiment: Inhibition of STAT3 dimer DNA binding activity after 30 mins
[2] = molecular target: T1, Signal transducer and activator of transcription 1-alpha/beta (Homo sapiens, UniProt P42224); experiment: (§1) Inhibition of STAT1 dimer DNA binding activity after 30 mins; assay type: functional
T1 sequence (P42224 whole entry): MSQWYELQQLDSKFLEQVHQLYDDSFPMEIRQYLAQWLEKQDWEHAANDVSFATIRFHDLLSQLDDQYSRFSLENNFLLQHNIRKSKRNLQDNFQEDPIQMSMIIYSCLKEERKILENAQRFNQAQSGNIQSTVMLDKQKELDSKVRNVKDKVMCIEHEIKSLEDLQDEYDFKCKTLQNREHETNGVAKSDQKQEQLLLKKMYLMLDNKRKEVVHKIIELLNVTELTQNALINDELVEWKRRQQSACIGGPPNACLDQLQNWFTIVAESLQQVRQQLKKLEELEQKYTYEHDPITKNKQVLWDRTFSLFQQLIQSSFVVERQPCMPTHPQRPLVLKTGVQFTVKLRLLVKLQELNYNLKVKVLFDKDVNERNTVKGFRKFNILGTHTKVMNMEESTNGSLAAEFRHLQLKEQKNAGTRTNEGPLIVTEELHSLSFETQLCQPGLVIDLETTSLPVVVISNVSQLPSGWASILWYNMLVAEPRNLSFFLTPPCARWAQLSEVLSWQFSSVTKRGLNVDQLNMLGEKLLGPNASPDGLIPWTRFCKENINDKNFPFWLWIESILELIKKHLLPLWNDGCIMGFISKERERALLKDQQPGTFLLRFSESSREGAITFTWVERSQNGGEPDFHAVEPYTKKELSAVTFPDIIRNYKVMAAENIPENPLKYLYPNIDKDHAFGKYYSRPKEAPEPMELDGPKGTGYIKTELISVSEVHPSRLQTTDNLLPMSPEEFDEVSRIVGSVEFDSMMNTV

[3] = molecular target: T2, Signal transducer and activator of transcription 1-alpha/beta (Homo sapiens) (UniProt P42224); experiment: as §1; assay type: functional
T2 sequence (whole entry): T1 sequence (P42224 whole entry)

Signal transducer and activator of transcription 3, sequence (P40763 whole entry): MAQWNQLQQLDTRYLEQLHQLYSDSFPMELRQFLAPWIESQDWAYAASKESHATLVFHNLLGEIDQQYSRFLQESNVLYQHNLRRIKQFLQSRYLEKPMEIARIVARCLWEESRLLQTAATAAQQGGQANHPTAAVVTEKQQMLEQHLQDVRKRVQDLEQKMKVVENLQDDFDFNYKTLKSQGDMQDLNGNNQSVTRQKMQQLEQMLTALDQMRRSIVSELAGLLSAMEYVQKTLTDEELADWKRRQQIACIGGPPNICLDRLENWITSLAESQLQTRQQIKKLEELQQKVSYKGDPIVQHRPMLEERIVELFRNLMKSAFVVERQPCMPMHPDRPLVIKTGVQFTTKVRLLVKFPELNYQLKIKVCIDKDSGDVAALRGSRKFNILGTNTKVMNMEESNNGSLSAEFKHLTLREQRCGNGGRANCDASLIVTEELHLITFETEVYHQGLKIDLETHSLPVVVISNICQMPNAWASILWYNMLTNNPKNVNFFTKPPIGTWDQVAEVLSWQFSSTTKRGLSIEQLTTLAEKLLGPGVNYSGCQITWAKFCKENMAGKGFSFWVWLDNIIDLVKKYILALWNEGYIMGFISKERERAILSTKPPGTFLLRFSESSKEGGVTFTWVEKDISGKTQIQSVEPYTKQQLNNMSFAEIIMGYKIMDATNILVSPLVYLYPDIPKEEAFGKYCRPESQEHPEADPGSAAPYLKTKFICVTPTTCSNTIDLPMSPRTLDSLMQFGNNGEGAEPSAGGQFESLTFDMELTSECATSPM

Row | Compound | IC50 [1] | IC50 [2] | Activity [1] | Activity [3]
1 | CC(C)CNC(=O)[C@H](CC(C)C)NC(=O)[C@H](Cc1ccc(OP(=O)(O)O)cc1)NC(=O)c1ccc(C#N)cc1 (stereo in doubt; form 2) | 74 µM | 250 µM |  | 
2 | COC(=O)[C@H](CC(C)C)NC(=O)[C@H](Cc1ccc(OP(=O)(O)O)cc1)NC(=O)c1ccc(C#N)cc1 |  |  | inactive | inactive
3 | COc1cccc(NC(=O)[C@H](CC(C)C)NC(=O)[C@H](Cc2ccc(OP(=O)(O)O)cc2)NC(=O)c2ccc(C#N)cc2)c1 | 31 µM | 560 µM |  | 
4 | Cc1cccc(NC(=O)[C@H](CC(C)C)NC(=O)[C@H](Cc2ccc(OP(=O)(O)O)cc2)NC(=O)c2ccc(C#N)cc2)c1 |  |  | inactive | inactive
5 | CC(C)C[C@H](NC(=O)[C@H](Cc1ccc(OP(=O)(O)O)cc1)NC(=O)c1ccc(C#N)cc1)C(=O)NC1CCCCC1 | 58 µM | 605 µM |  | 
6 | CC(C)C[C@H](NC(=O)[C@H](Cc1ccc(OP(=O)(O)O)cc1)NC(=O)c1ccc(C#N)cc1)C(=O)NCCCO | 620 µM | 210 µM |  | 

More lines, now with the values ahead:

Row | IC50 [1] | IC50 [2] | Activity [1] | Activity [3] | Compound
7 | 58 µM | 760 µM |  |  | CC(C)CNC(=O)[C@H](CC(C)C)NC(=O)[C@H](Cc1ccc(OP(=O)(O)O)cc1)NC(=O)c1ccc(C#N)cc1 (stereo in doubt; form 1)
8 | 800 µM | 760 µM |  |  | CC(C)C[C@H](NC(=O)[C@H](Cc1ccc(OP(=O)(O)O)cc1)NC(=O)c1ccc(C#N)cc1)C(=O)NCc1ccccc1
9 | 310 µM | 380 µM |  |  | CC(C)C[C@H](NC(=O)[C@H](Cc1ccc(OP(=O)(O)O)cc1)NC(=O)c1ccc(C#N)cc1)C(=O)Nc1ccccc1
10 |  |  | inactive | inactive | CC(C)C[C@H](NC(=O)[C@H](Cc1ccc(OP(=O)(O)O)cc1)NC(=O)c1ccc(C#N)cc1)C(=O)NCc1cccnc1
11 | 123 µM | 402 µM |  |  | CC(C)C[C@H](NC(=O)[C@H](Cc1ccc(OP(=O)(O)O)cc1)NC(=O)c1ccc(C#N)cc1)C(=O)NCc1ccncc1

Source: ChEMBL document CHEMBL1148868, “Isoform selective inhibition of STAT1 or STAT3 homo-dimerization via peptidomimetic probes: structural recognition of STAT SH2 domains” (Bioorg Med Chem Lett, 2007)
